Measurements: ChEMBL document CHEMBL1201862, “PubChem BioAssay data set” (2004)
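A five-concentration, 48-hour dose response in 96-well plates underlies each endpoint, interpolated linearly between surrounding concentrations. Here, GI50 denotes the concentration required for 50% inhibition of growth.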 The source made the active and inactive calls. Cut-off read from the data, not from the text of the source: active = GI50 up to about 1.1 µM and inactive = higher.

Key:
Experiment in all cases: inhibition of tumour cell growth, NCI panel, 48 h
Hs-578T = system: Hs-578T
EKVX = system: EKVX
TK-10 = system: TK-10
M14 = system: M14
OVCAR-5 = system: OVCAR-5
SR = system: SR
CCRF-CEM = system: CCRF-CEM
T47D = system: T47D
SK-OV-3 = system: SK-OV-3
SN12C = system: SN12C
SF-539 = system: SF-539
HCT-116 = system: HCT-116
RXF 393 = system: RXF 393
LOX IMVI = system: LOX IMVI
NCI/ADR-RES = system: NCI/ADR-RES
SF-268 = system: SF-268
HOP-62 = system: HOP-62
COLO 205 = system: COLO 205
IGROV-1 = system: IGROV-1
MDA-MB-231 = system: MDA-MB-231

SMILES | GI50 (Hs-578T) | GI50 (EKVX) | GI50 (TK-10) | GI50 (M14) | GI50 (OVCAR-5) | GI50 (SR) | GI50 (CCRF-CEM) | GI50 (T47D) | GI50 (SK-OV-3) | GI50 (SN12C) | GI50 (SF-539) | GI50 (HCT-116) | GI50 (RXF 393) | GI50 (LOX IMVI) | GI50 (NCI/ADR-RES) | GI50 (SF-268) | GI50 (HOP-62) | GI50 (COLO 205) | GI50 (IGROV-1) | GI50 (MDA-MB-231)
COc1cc(C(=O)N(Cc2cccnc2)C(=S)N(Cc2cccnc2)C(=O)c2cc(OC)c(OC)c(OC)c2)cc(OC)c1OC | > 100 µM (inactive) | > 100 µM (inactive) | 89.1 µM (inactive) | 94.8 µM (inactive) | > 100 µM (inactive) | 48.3 µM (inactive) | 30.3 µM (inactive) | 34.9 µM (inactive) | > 100 µM (inactive) | 37.9 µM (inactive) | > 100 µM (inactive) | 31 µM (inactive) | 38.4 µM (inactive) | 30.7 µM (inactive) | > 100 µM (inactive) | 40.4 µM (inactive) | 37.5 µM (inactive) | 35 µM (inactive) | – | –
COc1ccc(Nc2nc3c(N)cc(C(F)(F)F)cc3nc2-c2ccccc2)cc1 | – | 61.9 µM (inactive) | > 100 µM (inactive) | 79.6 µM (inactive) | > 100 µM (inactive) | 21.9 µM (inactive) | > 100 µM (inactive) | – | 83 µM (inactive) | > 100 µM (inactive) | > 100 µM (inactive) | > 100 µM (inactive) | 27.2 µM (inactive) | > 100 µM (inactive) | – | 75.7 µM (inactive) | 83.2 µM (inactive) | > 100 µM (inactive) | 52 µM (inactive) | –
N#Cc1c(Cl)cccc1Oc1ccc(S(=O)(=O)/N=C(\NN)Nc2ccc(Cl)cc2)cc1 | – | 23.3 µM (inactive) | 26.9 µM (inactive) | 22.9 µM (inactive) | 28.5 µM (inactive) | 0.0177 µM (active) | – | 20.1 µM (inactive) | 32.3 µM (inactive) | 25.2 µM (inactive) | 17.7 µM (inactive) | 17.7 µM (inactive) | 19.1 µM (inactive) | 17.5 µM (inactive) | 32.9 µM (inactive) | 22.8 µM (inactive) | 21.1 µM (inactive) | 15.6 µM (inactive) | 20.1 µM (inactive) | 27.4 µM (inactive)
CN1C(=O)c2c(ccc3c2OCO3)C2C(O)Cc3cc4c(cc3C21)OCO4 (stereo not given) | 5.26 µM (inactive) | 3.28 µM (inactive) | 7.8 µM (inactive) | 5.78 µM (inactive) | > 100 µM (inactive) | – | 3.37 µM (inactive) | – | 2.98 µM (inactive) | 4.15 µM (inactive) | 4.57 µM (inactive) | 4.34 µM (inactive) | – | 9.12 µM (inactive) | 3.03 µM (inactive) | 8.75 µM (inactive) | – | 3.88 µM (inactive) | 2.36 µM (inactive) | 3.38 µM (inactive)
CCOC(=O)c1c(N)sc2c1C(C)(C(=O)OCC)CC2 (stereo not given) | 78.7 µM (inactive) | 38.6 µM (inactive) | > 100 µM (inactive) | > 100 µM (inactive) | > 100 µM (inactive) | 92.7 µM (inactive) | – | – | – | > 100 µM (inactive) | – | 97.5 µM (inactive) | > 100 µM (inactive) | – | – | – | > 100 µM (inactive) | > 100 µM (inactive) | > 100 µM (inactive) | > 100 µM (inactive)
CC(=O)Oc1ccccc1C(=O)C1c2cccc(O)c2C(=O)c2c(O)cccc21 | – | 2.18 µM (inactive) | 3.65 µM (inactive) | 1.84 µM (inactive) | 2.58 µM (inactive) | 0.419 µM (active) | 0.306 µM (active) | – | 0.543 µM (active) | 2.3 µM (inactive) | 0.46 µM (active) | 0.897 µM (active) | 0.423 µM (active) | 1.62 µM (inactive) | – | 0.927 µM (active) | 1.44 µM (inactive) | 0.705 µM (active) | 0.986 µM (active) | –
COC(=O)C1=C(OC)[C@H]2C#C/C=C\C#C[C@@H]3Nc4c(cc(O)c5c4C(=O)c4ccccc4C5=O)[C@]24O[C@@]34[C@H]1C | 0.173 µM (active) | < 0.012 µM (active) | 0.0327 µM (active) | < 0.01 µM (active) | < 0.01 µM (active) | < 0.01 µM (active) | < 0.01 µM (active) | – | < 0.01 µM (active) | < 0.01 µM (active) | < 0.01 µM (active) | 0.0555 µM (active) | – | < 0.01 µM (active) | < 0.01 µM (active) | < 0.01 µM (active) | < 0.01 µM (active) | < 0.01 µM (active) | < 0.0127 µM (active) | < 0.01 µM (active)
C[n+]1cccc2ccc(OC(=O)c3ccccc3)cc21 | > 100 µM (inactive) | > 100 µM (inactive) | > 100 µM (inactive) | > 100 µM (inactive) | > 100 µM (inactive) | – | > 10 µM (inactive) | > 100 µM (inactive) | > 100 µM (inactive) | > 100 µM (inactive) | > 100 µM (inactive) | > 100 µM (inactive) | > 100 µM (inactive) | > 100 µM (inactive) | > 100 µM (inactive) | > 100 µM (inactive) | > 100 µM (inactive) | > 100 µM (inactive) | > 100 µM (inactive) | –
CCC(C)N1CN(c2ccccc2)C2(CCN(CC3COc4ccccc4O3)CC2)C1=O (stereo not given) | – | 14.9 µM (inactive) | 27.5 µM (inactive) | 20.2 µM (inactive) | > 10 µM (inactive) | 17.9 µM (inactive) | 19.9 µM (inactive) | 16 µM (inactive) | 33.6 µM (inactive) | 27.7 µM (inactive) | 17.8 µM (inactive) | 15.9 µM (inactive) | 20.9 µM (inactive) | 23.4 µM (inactive) | 17.8 µM (inactive) | 48 µM (inactive) | 19.4 µM (inactive) | 17.7 µM (inactive) | 42.2 µM (inactive) | > 100 µM (inactive)
CC1=CC[C@@]2(CO)[C@@H]([C@@H]1C)[C@H]1CC[C@@H]3[C@@]4(C)CC[C@H](O)C(C)(C)[C@@H]4CC[C@@]3(C)[C@]1(C)C[C@@H]2O | 15.8 µM (inactive) | 33.3 µM (inactive) | 18.4 µM (inactive) | 28.2 µM (inactive) | > 100 µM (inactive) | – | 41.1 µM (inactive) | 11.9 µM (inactive) | 14.4 µM (inactive) | 75.3 µM (inactive) | – | 21.5 µM (inactive) | 7.08 µM (inactive) | 15.8 µM (inactive) | 27.1 µM (inactive) | 21 µM (inactive) | 14.3 µM (inactive) | 17.3 µM (inactive) | 29.3 µM (inactive) | –
COc1ccc(/C=N/NC(=S)Nc2cc(C)ccc2OC)cc1 | 78.5 µM (inactive) | 20.8 µM (inactive) | – | 23.1 µM (inactive) | 16.9 µM (inactive) | 9.08 µM (inactive) | 22.3 µM (inactive) | 32.9 µM (inactive) | 51.8 µM (inactive) | 25.1 µM (inactive) | 24.5 µM (inactive) | 29.2 µM (inactive) | 33.7 µM (inactive) | 43.8 µM (inactive) | 41.9 µM (inactive) | 48.9 µM (inactive) | 34.8 µM (inactive) | 17 µM (inactive) | 33.5 µM (inactive) | –
C=C1C2=C(CCCC2)C(=O)OC12CCCCC2 | – | 52.1 µM (inactive) | > 100 µM (inactive) | > 100 µM (inactive) | 79.8 µM (inactive) | 38.9 µM (inactive) | 51.4 µM (inactive) | – | > 100 µM (inactive) | > 100 µM (inactive) | > 100 µM (inactive) | 47.1 µM (inactive) | 56.5 µM (inactive) | 66.4 µM (inactive) | – | 86.1 µM (inactive) | > 100 µM (inactive) | 51.2 µM (inactive) | 88.9 µM (inactive) | –
Cc1c2ccccc2c(C2C3C(=O)N(c4ccc(Br)cc4)C(=O)C3ON2C(C(N)=O)c2ccccc2)c2ccccc12 (stereo not given) | – | 5.28 µM (inactive) | – | 5.69 µM (inactive) | 5.6 µM (inactive) | – | 3.18 µM (inactive) | 3.18 µM (inactive) | 11.7 µM (inactive) | 5.3 µM (inactive) | 4.13 µM (inactive) | 4.37 µM (inactive) | 11.7 µM (inactive) | 4.97 µM (inactive) | 4.39 µM (inactive) | 9.14 µM (inactive) | 8.99 µM (inactive) | 1.77 µM (inactive) | 3.4 µM (inactive) | –
COC(=O)c1ccc(OCCn2nnc(C(=O)NN)c2C(=O)NN)cc1 | – | > 100 µM (inactive) | > 100 µM (inactive) | > 100 µM (inactive) | > 100 µM (inactive) | > 100 µM (inactive) | > 100 µM (inactive) | – | – | > 100 µM (inactive) | – | > 100 µM (inactive) | – | > 100 µM (inactive) | > 100 µM (inactive) | – | > 100 µM (inactive) | > 100 µM (inactive) | – | > 100 µM (inactive)
Cc1ccc2c3c1O[C@H]1c4[nH]c5ccccc5c4C[C@@]4(O)[C@@H](C2)N(CC2CC2)CC[C@]314 | – | 17.4 µM (inactive) | 17.3 µM (inactive) | 16.8 µM (inactive) | 18.7 µM (inactive) | 8.89 µM (inactive) | 2.78 µM (inactive) | 17.6 µM (inactive) | 16.4 µM (inactive) | 15.3 µM (inactive) | 16.5 µM (inactive) | 14.5 µM (inactive) | 7.38 µM (inactive) | 15.9 µM (inactive) | 19.1 µM (inactive) | 13.6 µM (inactive) | 19.2 µM (inactive) | 14.3 µM (inactive) | 17.4 µM (inactive) | 19.4 µM (inactive)
NN/C(=N\S(=O)(=O)c1cc(Cl)c(Oc2ccc([N+](=O)[O-])cc2Cl)c(Cl)c1)Nc1ccc(Cl)cc1 | – | 21.8 µM (inactive) | 19.3 µM (inactive) | 17.4 µM (inactive) | 24.4 µM (inactive) | 16.6 µM (inactive) | 10.8 µM (inactive) | 19.8 µM (inactive) | 44.7 µM (inactive) | 17.4 µM (inactive) | 14.7 µM (inactive) | 15.7 µM (inactive) | 13.2 µM (inactive) | 21 µM (inactive) | 23.2 µM (inactive) | 19.5 µM (inactive) | 18.4 µM (inactive) | 15.6 µM (inactive) | 20.2 µM (inactive) | 18.4 µM (inactive)
